{"source": "patent US10996215B2", "about": "“Methods for determining drug efficacy for the treatment of diffuse large B-cell lymphoma, multiple myeloma, and myeloid cancers” (CELGENE CORPORATION, priority 2013, dated 2021)", "key": {"IFN pathway": {"tested_on": "IFN pathway", "assay": "effect on IFN pathway (FIG. 13)", "type": "cell-based"}, "CSNK1A1, Ikaros": {"tested_on": "CSNK1A1, Ikaros", "assay": "Western analysis of BMMC or PBMC of lenalidomide-treated AML patients", "type": "in vivo", "conditions": "50 mg daily", "procedure": "3-5 μg total protein from each sample was evaludated for CSNK1A1, Ikaros, and GAPDH expressions by western analysis."}, "CSNK1A1 (CK1α), Ikaros": {"tested_on": "CSNK1A1 (CK1α), Ikaros", "assay": "MG-132, MLN-4924 or Compound A pre-treatment, Western analysis in HNT-34 cells", "type": "cell-based", "conditions": "10 μM, 3 h or 6 h"}, "ABC-DLBCL cell line": {"tested_on": "ABC-DLBCL cell line", "assay": "Tandem Mass Tag proteomics, lenalidomide vs Compound A", "type": "cell-based", "conditions": "ABC-DLBCL cell line; 10 uM; 24 h; vs DMSO", "excerpt": "Cells were harvested and proteins were fractionated using a basic pH reverse gradient method. Fractionated samples were labeled using a Tandem Mass Tag method."}, "AML cell line (HNT-34)": {"tested_on": "AML cell line (HNT-34)", "assay": "tandem-mass-tagged proteomics of global cellular protein levels", "type": "cell-based, human", "conditions": "10 micromolar", "procedure": "(§1) Samples were subjected to multiplexed quantitative mass spectrometry analysis. In particular, cell lysate was prepared from the samples, and was subjected to tandem protein digestion using LysC and trypsin, peptide labeling with either Tandem Mass Tag 6-plex or 10-plex reagents, and peptide fractionation. Multiplexed quantitative mass spectrometry data were collected on an Orbitrap Fusion mass spectrometer operating in a MS3 mode using synchronous precursor selection for the MS2 to MS3 fragmentation. MS/MS data were searched against a Uniprot human database with both the forward and reverse sequences using the SEQUEST algorithm. Additional data processing steps included controlling peptide and protein level false discovery rates, assembling proteins from peptides, and protein quantification from peptides. Each drug-treated sample has 3 replicates, each DMSO sample has 4 replicates.\n(§2) T is the statistic calculated for the t.test. P.value represents statistical significance for the test. Adj.P.value represents FDR multiple testing correction of the P.values in previous parameter. B log odds that the protein is differentially abundant between the conditions (compound vs control)."}, "[1]": {"tested_on": "del(5q) MDS cell line (MDS-L)", "assay": "tandem-mass-tagged proteomics of global cellular protein levels", "type": "cell-based, human", "procedure": "as §1, §2"}, "[2]": {"tested_on": "Aiolos, Ikaros, IRF4, Cereblon", "assay": "Western blot of Aiolos, Ikaros, IRF4, Cereblon in DLBCL cell lines", "type": "cell-based, human", "procedure": "Immunoblots were probed with antibodies recognizing: Aiolos, Ikaros, Cereblon, IRF4, c-myc, CD44, EZH2, EBF 1, PU. 1, and β-actin. Signals were detected with a LI-COR imager\nThe following steps can be performed to harvest cells in preparation for Western Blot analysis. The steps are performed on ice and any centrifugation is performed in a 4° C. refrigerated centrifuge. RIPA lysis buffer (Pierce, cat #89900) is first prepared by adding […] proteinase inhibitors (Pierce, cat #78443) to 1 mL of RIPA buffer. Subsequently, cells are washed once in ice-cold phosphate buffered saline (PBS). The cells are then lysed with 0.25 mL RIPA lysis buffer. The PBMCs are placed on ice for 30 minutes and vortexed every 10 minutes. Lysates are frozen and stored at −80° C. prior to further processing.\nLysates are placed in a QIAshredder® tube (QIAGEN, cat #79656) and spun down 30 sec, top speed (13200 rpm) in an Eppendorf benchtop centrifuge (Model 5415 R). The lysate is then transferred to a 1.5 mL clear Eppendorf tube and spun down 10 min at top speed. The supernatent is collected without disturbing the cell debris pellet. The supernatent is dry ice frozen and stored at −80° C. prior to analysis.\nThe protein concentration in supernatent is measured using BCA assay and the expected protein yield is about 0.5-5 μg/μL, or 125-1250 μg total. Approximately ≥10 μg protein per lane is loaded for western blotting (IRF4, IKZF3, etc.) using antibodies against the human proteins.\nMembranes are immunblotted with anti-Aiolos (Santa Cruz Biotechnology, Dallas, Tex.), anti-Ikaros (Millipore, Billerica, Mass.) and anti-Actin (Sigma, St. Louis, Mo.; or LI-COR Biosciences, Lincoln, Nebr.) and secondary antibodies (LI-COR Biosciences, Lincoln, Nebr.). The blots are analyzed on Odyssey imager (LI-COR Biosciences, Lincoln, Nebr.)."}, "[3]": {"tested_on": "other myeloid cancer cell lines", "assay": "4 d BrdU cell assay, sensitivity", "type": "cell-based", "conditions": "other cell lines of the panel, predominantly insensitive", "procedure": "(§3) Sensitivity to lenalidomide treatment in a panel of myeloid cancer cell lines was evaluated by tritiated thymidine and/or BrdU assays."}, "MDS-L": {"tested_on": "MDS-L", "assay": "4 d BrdU cell assay / tritiated thymidine, sensitivity", "type": "cell-based", "procedure": "as §3"}, "HNT-34": {"tested_on": "HNT-34", "assay": "4 d BrdU cell assay / tritiated thymidine, sensitivity", "type": "cell-based", "procedure": "as §3"}, "[4]": {"tested_on": "DLBCL cell lines (GCB and ABC)", "assay": "tritiated thymidine incorporation proliferation assay", "type": "cell-based", "procedure": "Cells were then cultured for 3 days at 37° C. Tritiated thymidine was applied to the cell culture for the final 6 hours and cells were then harvested onto filter plates. After the plates have dried, scintillation fluid was added to the plates and read on a Top-count reader.\nThe cells were then analyzed for proliferation using a ^3H-thymidine incorporation assay.\nProliferation was assessed through tritiated thymidine incorporation."}}, "note": "pEC50: −log10 of the molar value."}
{"smiles": "Nc1cccc2c1CN(C1CCC(=O)NC1=O)C2=O", "note": "(stereo not shown) [lenalidomide, 3-(4-amino-1-oxo-1,3-dihydro-isoindol-2-yl)-piperidine-2,6-dione]", "values": [{"measurement": "IFIT1, IFIT3, DDX58, XAF1, IFIH1, and OAS3 protein expression", "setting": "IFN pathway; FIG. 13A", "result": "upregulates"}, {"measurement": "DDX58, IFI27, IFIT1, IFIT3, DDX58, and XAF1 gene expression", "setting": "IFN pathway; FIG. 13B", "result": "upregulates"}, {"measurement": "ISG15 and OAS3 gene expression", "setting": "IFN pathway; FIG. 13C", "result": "upregulates"}, {"measurement": "IRF changes", "setting": "IFN pathway; FIG. 13E", "result": "induces"}, {"measurement": "IFIT1 and IFIT3 protein expression", "setting": "IFN pathway; FIG. 13F", "result": "upregulates"}, {"measurement": "IKKE protein level", "setting": "IFN pathway; FIG. 13F", "result": "reduces"}, {"measurement": "TBK1 phosphorylation (TBK1-PO4)", "setting": "IFN pathway; FIG. 13F", "result": "upregulates"}, {"measurement": "levels of STAT or phosphorylated STAT", "setting": "IFN pathway; FIG. 13G", "result": "induces changes"}, {"measurement": "patients with both CSNK1A1 and Ikaros modulated (down-regulated)", "setting": "CSNK1A1, Ikaros", "result": "4 of 5"}, {"measurement": "CSNK1A1 and Ikaros proteins levels", "setting": "CSNK1A1 (CK1α), Ikaros", "result": "decreased"}, {"measurement": "effect on CSNK1A1 protein", "setting": "ABC-DLBCL cell line", "result": "decreases"}, {"measurement": "log2FC CSNK1A1", "setting": "AML cell line (HNT-34); 8 hours", "result": "−1.6"}, {"measurement": "log2FC IKZF1", "setting": "AML cell line (HNT-34); 8 hours", "result": "−2.1"}, {"measurement": "log2FC CALM1", "setting": "AML cell line (HNT-34); 24 hours", "result": "−1.1"}, {"measurement": "log2FC CCNA2", "setting": "AML cell line (HNT-34); 24 hours", "result": "−1.1"}, {"measurement": "log2FC CSNK1A1", "setting": "AML cell line (HNT-34); 24 hours", "result": "−1.4"}, {"measurement": "log2FC IKZF1", "setting": "AML cell line (HNT-34); 24 hours", "result": "−2.4"}, {"measurement": "log2FC SERP1NH1", "setting": "AML cell line (HNT-34); 24 hours", "result": 1.1}, {"measurement": "log2FC ZFP91", "setting": "AML cell line (HNT-34); 24 hours", "result": "−1.4"}, {"measurement": "log2FC ARHGAP18", "setting": "AML cell line (HNT-34); 72 hours", "result": 1.0}, {"measurement": "log2FC CASS4", "setting": "AML cell line (HNT-34); 72 hours", "result": 1.0}, {"measurement": "log2FC CORO1B", "setting": "AML cell line (HNT-34); 72 hours", "result": 1.4}, {"measurement": "log2FC CSNK1A1", "setting": "AML cell line (HNT-34); 72 hours", "result": "−1.5"}, {"measurement": "log2FC DAB2", "setting": "AML cell line (HNT-34); 72 hours", "result": 1.3}, {"measurement": "log2FC HSPB1", "setting": "AML cell line (HNT-34); 72 hours", "result": 1.5}, {"measurement": "log2FC IKZF1", "setting": "AML cell line (HNT-34); 72 hours", "result": "−2.4"}, {"measurement": "log2FC ITM2C", "setting": "AML cell line (HNT-34); 72 hours", "result": "−1.2"}, {"measurement": "log2FC PPFIBP1", "setting": "AML cell line (HNT-34); 72 hours", "result": 1.2}, {"measurement": "log2FC SERPINH1", "setting": "AML cell line (HNT-34); 72 hours", "result": 1.7}, {"measurement": "log2FC ZFP91", "setting": "AML cell line (HNT-34); 72 hours", "result": "−1.1"}, {"measurement": "log2FC CSNK1A1", "setting": "[1]; 10 micromolar, 8 hours", "result": "−1.6"}, {"measurement": "log2FC IKZF1", "setting": "[1]; 10 micromolar, 8 hours", "result": "−2.1"}, {"measurement": "log2FC CCNA2", "setting": "[1]; 10 micromolar, 24 hours", "result": "−1.1"}, {"measurement": "log2FC CSNK1A1", "setting": "[1]; 10 micromolar, 24 hours", "result": "−1.4"}, {"measurement": "log2FC IKZF1", "setting": "[1]; 10 micromolar, 24 hours", "result": "−2.4"}, {"measurement": "log2FC SERPINH1", "setting": "[1]; 10 micromolar, 24 hours", "result": 1.1}, {"measurement": "log2FC ZFP91", "setting": "[1]; 10 micromolar, 24 hours", "result": "−1.4"}, {"measurement": "log2FC ARHGAP18", "setting": "[1]; 10 micromolar, 72 hours", "result": 1.0}, {"measurement": "log2FC CASS4", "setting": "[1]; 10 micromolar, 72 hours", "result": 1.0}, {"measurement": "log2FC CORO1B", "setting": "[1]; 10 micromolar, 72 hours", "result": 1.4}, {"measurement": "log2FC CSNK1A1", "setting": "[1]; 10 micromolar, 72 hours", "result": "−1.5"}, {"measurement": "log2FC CYTL1", "setting": "[1]; 10 micromolar, 72 hours", "result": "−1.2"}, {"measurement": "log2FC DAB2", "setting": "[1]; 10 micromolar, 72 hours", "result": 1.3}, {"measurement": "log2FC HSPB1", "setting": "[1]; 10 micromolar, 72 hours", "result": 1.5}, {"measurement": "log2FC IKZF1", "setting": "[1]; 10 micromolar, 72 hours", "result": "−2.4"}, {"measurement": "log2FC ITM2C", "setting": "[1]; 10 micromolar, 72 hours", "result": "−1.2"}, {"measurement": "log2FC PPFIBP1", "setting": "[1]; 10 micromolar, 72 hours", "result": 1.2}, {"measurement": "log2FC SERP1NH1", "setting": "[1]; 10 micromolar, 72 hours", "result": 1.7}, {"measurement": "log2FC YEATS2", "setting": "[1]; 10 micromolar, 72 hours", "result": 2.5}, {"measurement": "log2FC ZFP91", "setting": "[1]; 10 micromolar, 72 hours", "result": "−1.1"}, {"measurement": "down-regulation of Ikaros", "setting": "[1]; 72 hrs, most down-regulated protein", "result": "about 5 fold"}, {"measurement": "down-regulation of CSNK1A1", "setting": "[1]; 72 hrs, second most down-regulated protein", "result": "about 3 fold"}, {"measurement": "IRF4 levels", "setting": "[2]; DLBCL cell lines, 1 μM or 10 μM, within 72 hours", "result": "reduce"}, {"measurement": "Aiolos levels", "setting": "[2]; Karpas 422 (GCB) and TMD8 (ABC), 10 μM, 1, 6 or 12 hours, vs DMSO", "result": "decrease"}, {"measurement": "Aiolos and Ikaros levels", "setting": "[2]; WSU-DLCL2 (GCB) and OCI-LY10 (ABC), 10 μM, 1, 6 or 12 hours, vs DMSO", "result": "decreasing"}, {"measurement": "CRBN levels", "setting": "[2]; nine GCB and ABC DLBCL cell lines, 1 μM or 10 μM, 72 hours", "result": "remained constant"}, {"measurement": "Aiolos and Ikaros levels", "setting": "[2]; nine GCB and ABC DLBCL cell lines, 1 μM or 10 μM, 72 hours, vs DMSO", "result": "decreasing"}, {"measurement": "pEC50", "setting": "[3]", "result": "< 5.00"}, {"measurement": "pEC50", "setting": "MDS-L; 96 h, MDS-L, 4 d BrdU", "result": 5.82}, {"measurement": "sensitivity of MDS-L cells", "setting": "MDS-L; FIG. 22B", "result": "sensitive"}, {"measurement": "pEC50", "setting": "HNT-34; 96 h, HNT-34, 4 d BrdU", "result": 6.22}, {"measurement": "sensitivity of HNT-34 cells", "setting": "HNT-34; FIG. 22B", "result": "sensitive"}, {"measurement": "sensitivity of ABC DLBCL cell lines", "setting": "[4]", "result": "sensitive"}, {"measurement": "sensitivity of GCB cell lines", "setting": "[4]", "result": "less sensitive"}]}
